The source of these data is ChEMBL document CHEMBL1201862, “PubChem BioAssay data set” (2004).

Among the test systems are A549; ACHN; COLO 205; HCT-15; KM12; NCI-H522; RPMI-8226; SF-268; SK-MEL-2; SK-MEL-5; SK-OV-3; SNB-75; SW-620; UACC-257; Hs-578T; MDA-MB-231; MDA-MB-435; PC-3; T47D; MDA-N.
Test in all cases: inhibition of tumour cell growth, NCI panel, 48 h

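Where inhibition never reached the appropriate level, the endpoint shown equals the highest concentration tested. Otherwise, values were interpolated linearly from a five-concentration, 48-hour dose response in 96-well plates. GI50 = concentration required for 50% inhibition of growth.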 Active and inactive are the calls of the source. No stated cut-off is given here; in the data, active = GI50 up to about 1.1 µM and inactive = higher.

Consider `Nc1nnc2nc(CC(=O)/C=C/c3ccccc3)c(=O)[nH]n12`, for which the GI50 in the assay with A549 is > 100 µM (inactive); with ACHN, > 100 µM (inactive); with COLO 205, > 100 µM (inactive); with HCT-15, > 100 µM; in the assay with KM12, > 100 µM (inactive); in the assay with NCI-H522, > 100 µM (inactive). The GI50 with RPMI-8226, in the assay with SF-268, in the assay on SK-MEL-2, in the assay with SK-MEL-5, with SK-OV-3 and in the assay on SNB-75 was > 100 µM (inactive) in each case. Also, the GI50 with SW-620 and in the assay with UACC-257 was > 100 µM (inactive) each time.
In the case of `CCCCCCN1C(=O)CC(=O)N(CCCCCC)S1(=O)=O`, the GI50 was 35.2 µM (inactive) in the assay with A549; 17.9 µM (inactive) in the assay on COLO 205; 22 µM (inactive) in the assay on Hs-578T; 28.1 µM (inactive) with KM12; 17.1 µM (inactive) in the assay on MDA-MB-231; 22.3 µM (inactive) in the assay on MDA-MB-435. The GI50 in the assay with NCI-H522 was 12.9 µM (inactive); with PC-3, 23 µM (inactive); in the assay with RPMI-8226 it was 24.7 µM (inactive); with SF-268, 17.7 µM (inactive); with SK-MEL-2, 12.7 µM (inactive); in the assay with SK-MEL-5, 19.8 µM (inactive). The GI50 with SK-OV-3 is 21.8 µM (inactive); in the assay with SNB-75 it was 17.9 µM (inactive); with SW-620, 19.1 µM (inactive); in the assay with T47D it was 64.3 µM (inactive); with UACC-257, 38.4 µM (inactive).
Turning to `COc1cc(Nc2nc3ccccc3n3cccc23)cc(OC)c1OC`, the GI50 was > 100 µM (inactive) with A549; > 100 µM (inactive) in the assay on ACHN; > 100 µM (inactive) in the assay with COLO 205; > 100 µM in the assay with HCT-15; 64.4 µM (inactive) in the assay with Hs-578T; > 100 µM (inactive) in the assay with KM12. For the same compound, the GI50 is 27.1 µM (inactive) in the assay with MDA-MB-231; > 100 µM (inactive) with MDA-MB-435; > 100 µM (inactive) in the assay on NCI-H522; > 100 µM (inactive) with PC-3; > 100 µM (inactive) in the assay on RPMI-8226; 28.5 µM (inactive) in the assay with SF-268. For the same compound, the GI50 was 52.5 µM (inactive) in the assay with SK-MEL-2; > 100 µM (inactive) in the assay with SK-MEL-5; 37.3 µM (inactive) with SK-OV-3; > 100 µM (inactive) with SW-620; 0.276 µM (active) in the assay with T47D; > 100 µM (inactive) with UACC-257.
As to `Clc1nss/c1=N/c1nonc1-c1ccccc1`, the GI50 in the assay on A549 was 68.9 µM (inactive); in the assay on ACHN, 18.6 µM (inactive); in the assay with COLO 205, 20.4 µM (inactive); in the assay with HCT-15 it was > 100 µM; in the assay on KM12, 31 µM (inactive); in the assay on MDA-MB-231, 14 µM (inactive). Besides, the GI50 with MDA-MB-435 is 38.6 µM (inactive); in the assay with MDA-N it was 20.1 µM (inactive); with NCI-H522, 18.3 µM (inactive); in the assay on PC-3, 38.3 µM (inactive); with RPMI-8226 it was 27.2 µM (inactive); in the assay on SK-MEL-2, 34.9 µM (inactive). In addition, the GI50 in the assay on SK-MEL-5 was 20.3 µM (inactive); in the assay on SK-OV-3, > 100 µM (inactive); in the assay on SNB-75 it was 23.2 µM (inactive); in the assay with SW-620, 41.6 µM (inactive); in the assay on UACC-257 it was 33 µM (inactive).
For `O=C(Cn1c2ccc(Br)cc2c2nc3ccccc3nc21)N/N=C/c1ccccc1`, the GI50 in the assay on A549, with ACHN, in the assay with COLO 205, in the assay on KM12, in the assay with MDA-MB-231 and in the assay on MDA-MB-435 was > 100 µM (inactive) each time. For the same compound, the GI50 with PC-3 was > 100 µM (inactive); in the assay with RPMI-8226 it was > 10 µM (inactive); in the assay on SF-268 it was 87.3 µM (inactive); in the assay with SK-MEL-2, 83.6 µM (inactive); in the assay with SK-MEL-5, > 100 µM (inactive); in the assay with SK-OV-3, 31.1 µM (inactive). Besides, the GI50 was 83.9 µM (inactive) with SNB-75, > 100 µM (inactive) with SW-620, > 100 µM (inactive) in the assay with T47D and > 100 µM (inactive) with UACC-257.
As to `CCNC(=O)/C=C/CCC#Cc1ccc(-c2ccc(-c3cccs3)s2)s1`, the GI50 in the assay on A549 was > 100 µM (inactive); in the assay on ACHN, > 100 µM (inactive); in the assay on COLO 205, 1.63 µM (inactive); with HCT-15, > 100 µM; in the assay with KM12, > 100 µM (inactive); with NCI-H522, > 100 µM (inactive). Moreover, the GI50 in the assay with RPMI-8226 was > 100 µM (inactive); with SF-268 it was > 100 µM (inactive); in the assay with SK-MEL-2, > 100 µM (inactive); in the assay with SK-MEL-5, 5.24 µM (inactive); in the assay on SK-OV-3, > 100 µM (inactive); with SNB-75 it was > 100 µM (inactive). Further, the GI50 in the assay on SW-620 and with UACC-257 was > 100 µM (inactive) in each case.
For the compound `COc1cc2cc[n+](C)c(Cc3ccccc3)c2cc1OC`, the GI50 in the assay with A549 was > 100 µM (inactive); in the assay with ACHN, > 100 µM (inactive); in the assay on COLO 205, > 100 µM (inactive); with HCT-15, > 100 µM; in the assay with KM12, > 100 µM (inactive); with NCI-H522, 86.1 µM (inactive). Also, the GI50 with RPMI-8226, in the assay on SF-268, in the assay on SK-MEL-2, in the assay on SK-MEL-5, with SK-OV-3 and in the assay on SNB-75 was > 100 µM (inactive) throughout. The GI50 with SW-620 and in the assay with UACC-257 was > 100 µM (inactive) each time.
As for `CC(=O)O[C@]12CCCCCCC1C1(O)C(O)CCC[C@H]12` (stereo not given in full), the GI50 with A549 is > 100 µM (inactive); in the assay with ACHN, > 100 µM (inactive); in the assay on COLO 205 it was > 100 µM (inactive); with HCT-15, > 100 µM; in the assay with KM12, > 100 µM (inactive); with NCI-H522, > 100 µM (inactive). The GI50 with RPMI-8226, with SF-268, in the assay on SK-MEL-2, in the assay on SK-MEL-5, in the assay with SK-OV-3 and in the assay on SNB-75 was > 100 µM (inactive) in each case. For the same compound, the GI50 in the assay on SW-620 and in the assay on UACC-257 was > 100 µM (inactive) each time.
Turning to `c1ccc2c(NCCCCCCCCNc3c4ccccc4nc4ccccc34)c3ccccc3nc2c1`, the GI50 with A549 is 0.0948 µM (active); with ACHN, 0.0703 µM (active); with COLO 205, 0.113 µM (active); in the assay with HCT-15 it was 0.528 µM; in the assay with Hs-578T it was 0.478 µM (active); in the assay with KM12, 0.187 µM (active). For the same compound, the GI50 was 0.0482 µM (active) in the assay with MDA-MB-231; 1.04 µM (active) in the assay on MDA-MB-435; < 0.0247 µM (active) with NCI-H522; 0.0548 µM (active) in the assay with PC-3; 0.0828 µM (active) in the assay on RPMI-8226; 0.63 µM (active) in the assay with SF-268. Further, the GI50 in the assay on SK-MEL-2 is 0.733 µM (active); in the assay with SK-MEL-5, 1.39 µM (inactive); in the assay on SK-OV-3 it was 0.553 µM (active); in the assay with SNB-75 it was 1.19 µM (inactive); in the assay with SW-620, 0.0506 µM (active); with T47D, 0.59 µM (active). The GI50 in the assay with UACC-257 was 1.37 µM (inactive).
With `O=C(Nc1c(-c2nc3ccccc3[nH]2)sc(=S)n1-c1ccccc1)c1ccccc1`, the GI50 was > 100 µM (inactive) in the assay with A549; > 100 µM (inactive) in the assay with ACHN; > 100 µM (inactive) with COLO 205; > 100 µM in the assay with HCT-15; > 100 µM (inactive) in the assay with KM12; > 100 µM (inactive) in the assay with NCI-H522. The GI50 in the assay on RPMI-8226 is > 100 µM (inactive); in the assay with SF-268, > 100 µM (inactive); with SK-MEL-2, > 100 µM (inactive); in the assay with SK-MEL-5 it was > 100 µM (inactive); in the assay with SK-OV-3, > 100 µM (inactive); with SNB-75, 29.4 µM (inactive). Also, the GI50 in the assay with SW-620 and in the assay with UACC-257 was > 100 µM (inactive) throughout.
As to `COC(=N)CCCl`, the GI50 was > 100 µM (inactive) in the assay with A549; > 100 µM (inactive) in the assay on ACHN; > 100 µM (inactive) in the assay with COLO 205; > 100 µM in the assay on HCT-15; > 100 µM (inactive) in the assay on KM12; > 100 µM (inactive) in the assay on MDA-N. For the same compound, the GI50 was 99.1 µM (inactive) in the assay on NCI-H522; > 100 µM (inactive) in the assay on PC-3; > 100 µM (inactive) in the assay with RPMI-8226; > 100 µM (inactive) in the assay on SF-268; > 100 µM (inactive) with SK-MEL-5; > 100 µM (inactive) with SK-OV-3. Besides, the GI50 was 83.2 µM (inactive) in the assay with SNB-75, > 100 µM (inactive) in the assay with SW-620 and > 100 µM (inactive) in the assay with UACC-257.
`CC(C)C1COC(C(C)(C)C2=N[C@@H](C(C)C)CO2)=N1` (stereo not given in full): the GI50 in the assay on A549 is > 100 µM (inactive); with ACHN, > 100 µM (inactive); in the assay on COLO 205, > 100 µM (inactive); in the assay on HCT-15, > 100 µM; in the assay with KM12, > 100 µM (inactive); with NCI-H522, > 100 µM (inactive). Besides, the GI50 in the assay on RPMI-8226, in the assay with SF-268, in the assay on SK-MEL-2, in the assay with SK-MEL-5, in the assay on SK-OV-3 and in the assay on SNB-75 was > 100 µM (inactive) throughout. For the same compound, the GI50 in the assay with SW-620 and in the assay with UACC-257 was > 100 µM (inactive) in each case.
As to `NC(=O)NC(=O)C1CCC(=O)N1S(=O)(=O)c1ccc(Cl)cc1` (stereo not given), the GI50 in the assay on A549 is > 100 µM (inactive); in the assay on ACHN it was > 100 µM (inactive); in the assay on COLO 205, > 100 µM (inactive); in the assay with HCT-15, > 100 µM; with KM12 it was > 100 µM (inactive); with NCI-H522, 63 µM (inactive). For the same compound, the GI50 in the assay with RPMI-8226, in the assay on SF-268, in the assay with SK-MEL-2, in the assay with SK-MEL-5, with SK-OV-3 and with SNB-75 was > 100 µM (inactive) throughout. Further, the GI50 with SW-620 and with UACC-257 was > 100 µM (inactive) each time.
